{
  "source": "ChEMBL document CHEMBL1201862",
  "about": "“PubChem BioAssay data set” (2004)",
  "key": {"[1]": {"biological_target": "T1, Fatty acid synthase (Homo sapiens, UniProt P49327)", "T1 sequence (P49327 whole entry)": "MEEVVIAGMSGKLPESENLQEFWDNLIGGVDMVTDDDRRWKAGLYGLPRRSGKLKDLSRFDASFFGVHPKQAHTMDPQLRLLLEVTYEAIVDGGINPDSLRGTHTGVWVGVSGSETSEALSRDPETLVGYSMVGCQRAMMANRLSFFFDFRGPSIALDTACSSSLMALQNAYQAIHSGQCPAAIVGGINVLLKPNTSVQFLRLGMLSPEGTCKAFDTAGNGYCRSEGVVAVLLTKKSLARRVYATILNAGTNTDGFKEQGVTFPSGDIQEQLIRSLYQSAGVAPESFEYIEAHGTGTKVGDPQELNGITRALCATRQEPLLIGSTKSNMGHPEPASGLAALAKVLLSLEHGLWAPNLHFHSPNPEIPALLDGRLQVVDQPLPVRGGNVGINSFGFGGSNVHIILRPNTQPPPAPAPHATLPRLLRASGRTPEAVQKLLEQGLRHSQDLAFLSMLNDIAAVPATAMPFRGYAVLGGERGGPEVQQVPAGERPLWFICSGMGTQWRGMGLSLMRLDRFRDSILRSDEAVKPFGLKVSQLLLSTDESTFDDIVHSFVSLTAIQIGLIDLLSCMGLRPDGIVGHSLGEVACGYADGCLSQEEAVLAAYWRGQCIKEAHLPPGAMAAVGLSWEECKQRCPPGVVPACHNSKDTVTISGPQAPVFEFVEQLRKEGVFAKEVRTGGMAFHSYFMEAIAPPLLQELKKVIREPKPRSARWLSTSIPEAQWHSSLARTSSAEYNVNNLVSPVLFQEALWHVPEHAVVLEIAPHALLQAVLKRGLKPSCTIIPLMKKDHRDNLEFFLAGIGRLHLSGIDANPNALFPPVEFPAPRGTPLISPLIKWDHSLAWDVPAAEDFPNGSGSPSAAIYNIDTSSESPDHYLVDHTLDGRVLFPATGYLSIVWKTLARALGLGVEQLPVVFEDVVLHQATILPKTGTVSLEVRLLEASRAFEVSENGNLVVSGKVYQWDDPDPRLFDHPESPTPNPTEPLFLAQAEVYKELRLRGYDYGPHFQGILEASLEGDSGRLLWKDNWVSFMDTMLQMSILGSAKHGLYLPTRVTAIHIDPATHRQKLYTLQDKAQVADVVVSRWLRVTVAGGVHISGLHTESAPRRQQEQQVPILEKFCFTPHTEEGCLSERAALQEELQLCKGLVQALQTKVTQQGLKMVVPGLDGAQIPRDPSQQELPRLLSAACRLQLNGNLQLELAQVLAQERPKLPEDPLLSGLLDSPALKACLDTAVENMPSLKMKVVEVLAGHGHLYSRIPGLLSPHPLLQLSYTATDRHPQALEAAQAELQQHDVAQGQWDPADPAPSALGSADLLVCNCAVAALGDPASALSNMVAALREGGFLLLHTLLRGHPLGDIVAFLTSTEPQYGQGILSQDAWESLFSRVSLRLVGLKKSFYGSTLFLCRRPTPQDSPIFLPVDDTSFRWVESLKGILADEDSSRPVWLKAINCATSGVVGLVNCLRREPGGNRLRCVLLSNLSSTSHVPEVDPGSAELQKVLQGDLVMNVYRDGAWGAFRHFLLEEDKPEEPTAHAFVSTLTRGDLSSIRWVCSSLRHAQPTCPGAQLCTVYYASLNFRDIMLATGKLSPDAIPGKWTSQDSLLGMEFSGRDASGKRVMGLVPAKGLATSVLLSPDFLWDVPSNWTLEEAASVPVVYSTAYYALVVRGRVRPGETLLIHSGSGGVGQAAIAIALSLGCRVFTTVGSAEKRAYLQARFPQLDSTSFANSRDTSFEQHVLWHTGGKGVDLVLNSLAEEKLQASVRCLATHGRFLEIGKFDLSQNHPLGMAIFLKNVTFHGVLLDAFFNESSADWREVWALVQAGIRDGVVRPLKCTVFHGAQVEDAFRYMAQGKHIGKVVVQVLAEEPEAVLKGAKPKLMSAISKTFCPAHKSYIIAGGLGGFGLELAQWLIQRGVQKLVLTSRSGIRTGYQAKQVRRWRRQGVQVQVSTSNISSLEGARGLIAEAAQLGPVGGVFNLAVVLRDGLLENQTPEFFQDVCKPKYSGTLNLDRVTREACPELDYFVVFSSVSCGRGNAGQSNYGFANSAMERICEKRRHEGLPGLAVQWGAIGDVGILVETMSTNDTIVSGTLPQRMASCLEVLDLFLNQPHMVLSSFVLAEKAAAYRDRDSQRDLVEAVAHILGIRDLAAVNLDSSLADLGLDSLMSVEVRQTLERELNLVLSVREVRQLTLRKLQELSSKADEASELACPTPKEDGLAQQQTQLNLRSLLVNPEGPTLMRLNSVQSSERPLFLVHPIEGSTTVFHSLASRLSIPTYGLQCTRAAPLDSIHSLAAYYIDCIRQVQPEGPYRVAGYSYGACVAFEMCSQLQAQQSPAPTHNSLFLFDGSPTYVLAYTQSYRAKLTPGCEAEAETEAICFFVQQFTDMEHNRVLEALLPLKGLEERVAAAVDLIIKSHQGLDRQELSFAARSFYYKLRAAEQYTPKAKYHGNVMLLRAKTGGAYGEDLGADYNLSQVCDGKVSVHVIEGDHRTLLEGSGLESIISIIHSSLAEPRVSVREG", "test": "inhibition of human FAS-TE enzyme activity – biochemical, kinetic fluorescence intensity, dose response (AID 624326);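 note: rate of fluorescence rise from hydrolysis of a fluorogenic O-methyl fluorescein ester substrate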", "type": "functional"}, "[2]": {"biological_target": "T1, Fatty acid synthase", "test": "inhibition of human FAS-TE enzyme activity – biochemical, endpoint fluorescence intensity, uHTS hits, dose response (AID 624327);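 note: fluorescence from hydrolysis of an O-methyl fluorescein acyl ester substrate by the enzyme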", "type": "functional"}, "[3]": {"biological_target": "T2, Oxysterols receptor LXR-beta (Homo sapiens, UniProt P55055)", "T2 sequence (P55055 whole entry)": "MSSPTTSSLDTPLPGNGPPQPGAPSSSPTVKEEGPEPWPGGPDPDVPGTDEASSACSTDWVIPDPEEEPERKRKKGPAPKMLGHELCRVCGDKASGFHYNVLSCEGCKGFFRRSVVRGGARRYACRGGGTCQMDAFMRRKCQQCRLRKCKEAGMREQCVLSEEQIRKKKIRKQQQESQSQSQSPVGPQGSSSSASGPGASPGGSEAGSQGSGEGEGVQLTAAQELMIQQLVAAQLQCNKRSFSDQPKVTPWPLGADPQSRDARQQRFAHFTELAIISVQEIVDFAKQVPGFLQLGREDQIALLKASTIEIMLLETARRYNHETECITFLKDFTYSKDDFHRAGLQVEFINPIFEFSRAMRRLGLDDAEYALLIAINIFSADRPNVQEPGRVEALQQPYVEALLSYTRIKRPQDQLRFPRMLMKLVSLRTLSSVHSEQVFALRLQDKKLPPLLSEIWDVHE", "type": "functional, cell-based"}, "[4]": {"biological_target": "T3, Polyadenylate-binding protein 1 (Homo sapiens, UniProt P11940)", "T3 sequence (P11940 whole entry)": "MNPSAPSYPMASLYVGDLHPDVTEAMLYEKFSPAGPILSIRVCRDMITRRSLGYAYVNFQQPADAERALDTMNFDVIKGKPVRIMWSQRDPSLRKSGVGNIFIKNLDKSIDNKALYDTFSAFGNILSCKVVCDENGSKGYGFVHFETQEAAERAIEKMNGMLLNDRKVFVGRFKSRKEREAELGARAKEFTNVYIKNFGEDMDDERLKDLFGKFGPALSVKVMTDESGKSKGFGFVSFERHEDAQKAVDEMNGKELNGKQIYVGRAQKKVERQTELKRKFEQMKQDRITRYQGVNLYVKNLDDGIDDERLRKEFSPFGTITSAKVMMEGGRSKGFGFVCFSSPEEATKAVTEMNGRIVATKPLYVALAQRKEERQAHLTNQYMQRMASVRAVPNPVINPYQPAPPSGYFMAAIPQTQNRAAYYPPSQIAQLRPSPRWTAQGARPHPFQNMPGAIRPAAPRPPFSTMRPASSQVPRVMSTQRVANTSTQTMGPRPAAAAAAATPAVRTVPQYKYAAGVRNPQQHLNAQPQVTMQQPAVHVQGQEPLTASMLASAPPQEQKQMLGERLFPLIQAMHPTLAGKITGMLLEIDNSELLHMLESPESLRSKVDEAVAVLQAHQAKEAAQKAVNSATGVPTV", "test": "MLLE binding blockers, Cy5 peptide tracer – biochemical, fluorescence polarization, Cy5-PAM2 peptide, secondary, miRNA deadenylation inhibitor project, dose response (AID 602260)", "type": "functional", "conditions": "read-out: IC50_Mean"}, "[5]": {"biological_target": "T3, Polyadenylate-binding protein 1", "test": "MLLE domain peptide-binding blockers, IC50 – biochemical, fluorescence polarization, FITC-PAM2 peptide, dose response (AID 602259)", "type": "functional", "conditions": "read-out: IC50_Mean"}, "[6]": {"test": "microbe, parasite or virus in culture", "type": "functional", "conditions": "Mycobacterium tuberculosis"}, "[7]": {"test": "Luminescence Cell-Based Dose Retest to Confirm Inhibitors of Cancer Stem Cells. [Related pubchem assays (depositor defined):AID2717, AID2721]", "type": "functional", "conditions": "Homo sapiens"}, "[8]": {"test": "NIH3T3 cell viability loss – ATP luminescence, mouse fibroblasts, counter-screen, dose response (AID 2010);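 note: cells exposed to compound for about 90 hours before reading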", "type": "functional, cell-based"}, "[9]": {"test": "Trypanosoma cruzi growth suppression in host cells – NIH3T3 host cells, beta-gal luminescence, confirmation (AID 2044);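 note: luminescent beta-galactosidase reporter signal from transgenic T. cruzi replicating inside host cells; inhibitors lower the luminescence signal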", "type": "functional, cell-based"}, "[10]": {"biological_target": "T4, Streptokinase A (Streptococcus pyogenes serotype M1, UniProt P10520)", "T4 sequence (P10520 whole entry)": "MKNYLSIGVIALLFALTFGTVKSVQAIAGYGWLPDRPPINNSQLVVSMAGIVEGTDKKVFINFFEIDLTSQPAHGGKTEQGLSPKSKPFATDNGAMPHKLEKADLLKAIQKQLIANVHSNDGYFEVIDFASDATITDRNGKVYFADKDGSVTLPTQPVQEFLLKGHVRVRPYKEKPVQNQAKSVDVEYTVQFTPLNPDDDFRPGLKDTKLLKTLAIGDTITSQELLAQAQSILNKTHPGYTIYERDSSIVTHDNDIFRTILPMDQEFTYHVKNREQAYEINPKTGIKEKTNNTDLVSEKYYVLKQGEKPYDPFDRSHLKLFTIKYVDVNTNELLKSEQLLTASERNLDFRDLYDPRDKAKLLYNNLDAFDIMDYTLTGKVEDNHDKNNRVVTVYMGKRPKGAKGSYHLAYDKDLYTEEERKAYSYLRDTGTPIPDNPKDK", "test": "viability-normalized secreted streptokinase activity reduction – plasminogen activation absorbance, OD405, dose response (AID 1914);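 note: secreted streptokinase activity via plasminogen activation per viability signal from cell pellet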", "type": "functional, Streptococcus pyogenes M1 GAS"}, "[11]": {"tested_on": "Streptococcus sp. 'group A'", "test": "Streptococcus pyogenes SK(-)GAS viability under kanamycin – luminescence, BacTiterGlo, confirmation, counter-screen for streptokinase expression inhibitor project, dose response (AID 1900)", "type": "functional, organism-based"}, "[12]": {"tested_on": "Streptococcus", "test": "GAS UMAA2166 growth inhibition – luminescence, BacTiterGlo, counter-screen for streptokinase expression inhibitor project, dose response (AID 1915);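 note: potency for reduction of bacterial viability or growth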", "type": "functional, organism-based"}, "[13]": {"biological_target": "T5, Calpain-2 catalytic subunit (Sus scrofa, UniProt P43367)", "T5 sequence (P43367 whole entry)": "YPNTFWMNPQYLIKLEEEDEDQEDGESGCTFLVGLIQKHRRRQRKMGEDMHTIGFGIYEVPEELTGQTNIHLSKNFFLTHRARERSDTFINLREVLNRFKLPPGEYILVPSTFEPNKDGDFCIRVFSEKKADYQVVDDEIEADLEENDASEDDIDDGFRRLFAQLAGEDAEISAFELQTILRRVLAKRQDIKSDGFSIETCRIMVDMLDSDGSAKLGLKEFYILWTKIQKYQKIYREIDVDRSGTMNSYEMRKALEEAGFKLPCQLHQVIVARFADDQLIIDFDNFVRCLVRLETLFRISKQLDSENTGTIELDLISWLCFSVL", "test": "m-calpain protease blockers, concentration series – biochemical, fluorogenic peptide substrate, dose response (AID 1420)", "type": "functional"}, "[14]": {"test": "viability of HCT116 lacking mutant beta-catenin – cell-based, human colon tumor, dose response (AID 1045);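 note: cells exposed to compound for 60 hours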", "type": "functional"}, "[15]": {"test": "viability of PTEN-deleted HCT116 cells – cell-based, HCT116 PTEN knockout, dose response (AID 1047);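 note: cells exposed to compound for 60 hours before readout; potency for loss of cell viability measured by luminescence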", "type": "functional"}, "[16]": {"test": "NIH-3T3 fibroblast cytotoxicity, dose response, cytotoxicity control, cell-based, fluorescence, Alamar Blue, secondary assay (AID 2327);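 note: NIH-3T3 mouse fibroblasts cultured with fluconazole at 8 µg/mL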", "type": "functional"}},
  "note": "Active and inactive are the calls of the source.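 Throughout, for AC50: cells exposed to compound for roughly 70 hours or longer before luminescence read.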",
  "data": [
    {"smiles": "Cn1c(-c2ccc(F)cc2)cnc1NCc1cccc([N+](=O)[O-])c1", "values": [
      {"measurement": "IC50", "setting": "[1]", "result": "9.83 µM (active)"},
      {"measurement": "IC50", "setting": "[2]", "result": "5.28 µM (active)"}
    ]},
    {"smiles": "COc1ccc2[nH]c(C(=O)Nc3cccc(C)n3)cc2c1", "values": [
      {"measurement": "EC50", "setting": "[3]", "result": "> 67.5 µM (inactive)"}
    ]},
    {"smiles": "COCCN(C(=O)CSc1ccc2c(c1)OCCO2)c1c(N)n(CC(C)C)c(=O)[nH]c1=O", "values": [
      {"measurement": "IC50", "setting": "[4]", "result": "> 66 µM (inactive)"},
      {"measurement": "IC50", "setting": "[5]", "result": "> 66 µM (inactive)"}
    ]},
    {"smiles": "Cc1cc(N2CCN(c3ccc(C(F)(F)F)cc3[N+](=O)[O-])CC2)c2ccccc2n1", "values": [
      {"measurement": "CC50", "setting": "[6]", "result": "> 40 µM (active)"},
      {"measurement": "AC50", "setting": "[7]", "result": "0.726 µM (active)"}
    ]},
    {"smiles": "CS(=O)(=O)c1ccc(-c2csc(-c3cccnc3)n2)cc1", "values": [
      {"measurement": "IC50", "setting": "[1]", "result": "7.66 µM (active)"},
      {"measurement": "IC50", "setting": "[2]", "result": "10.3 µM (active)"}
    ]},
    {"smiles": "Cc1cc(C)nc(-n2nc(C)c(Sc3ccc(F)cc3)c2N)n1", "values": [
      {"measurement": "EC50", "setting": "[8]", "result": "> 60 µM (not active)"},
      {"measurement": "EC50", "setting": "[9]", "result": "2.01 µM (active)"},
      {"measurement": "EC50", "setting": "[3]", "result": "> 67.5 µM (inactive)"},
      {"measurement": "EC50", "setting": "[10]", "result": "> 150 µM (not active)"},
      {"measurement": "EC50", "setting": "[11]", "result": "> 150 µM (not active)"},
      {"measurement": "EC50", "setting": "[12]", "result": "> 150 µM (not active)"}
    ]},
    {"smiles": "CCN(CC(O)Cn1c2ccccc2c2ccccc21)S(=O)(=O)c1ccc(C)cc1", "note": "(centres undefined)", "values": [
      {"measurement": "IC50", "setting": "[13]", "result": "2.61 µM (not active)"}
    ]},
    {"smiles": "Cc1cc(C(=O)NC2=NCCS2)cs1", "values": [
      {"measurement": "EC50", "setting": "[3]", "result": "> 67.5 µM (inactive)"}
    ]},
    {"smiles": "CN(C1CCCCC1)S(=O)(=O)c1ccc(NC(=S)NC(=O)c2cccs2)cc1", "values": [
      {"measurement": "IC50", "setting": "[4]", "result": "> 66 µM (inactive)"},
      {"measurement": "IC50", "setting": "[5]", "result": "> 66 µM (inactive)"}
    ]},
    {"smiles": "Cc1cc(-c2ccncc2)n2ncc(-c3ccccc3)c2n1", "values": [
      {"measurement": "EC50", "setting": "[3]", "result": "> 67.6 µM (inactive)"}
    ]},
    {"smiles": "COc1ccc(/C=N/OCC(=O)Nc2ccc3c(c2)OCO3)c(OC)c1", "values": [
      {"measurement": "IC50", "setting": "[13]", "result": "> 50 µM (not active)"}
    ]},
    {"smiles": "Cc1cc(C(=O)OCC(=O)Nc2cccc([N+](=O)[O-])c2)c(C)o1", "values": [
      {"measurement": "IC50", "setting": "[1]", "result": "17.2 µM (active)"},
      {"measurement": "IC50", "setting": "[2]", "result": "9.82 µM (active)"}
    ]},
    {"smiles": "Cc1cc(C)n2c(NC3CCCC3)c(-c3cc4ccccc4o3)nc2n1", "values": [
      {"measurement": "EC50", "setting": "[3]", "result": "> 67.5 µM (inactive)"}
    ]},
    {"smiles": "CCO/C(O)=C1\\C(C)=NC(SCC(=O)Nc2nc(C)cs2)=C(C#N)C1c1cccs1", "note": "(centres undefined)", "values": [
      {"measurement": "EC50", "setting": "[14]", "result": "16.6 µM (active)"},
      {"measurement": "CC50", "setting": "[6]", "result": "> 40 µM (active)"},
      {"measurement": "EC50", "setting": "[15]", "result": "14.5 µM (active)"}
    ]},
    {"smiles": "O=C(CCCN1C(=O)c2ccccc2C1=O)C1=C(NCCO)CC(c2ccccc2)CC1=O", "note": "(centres undefined)", "values": [
      {"measurement": "IC50", "setting": "[13]", "result": "30.4 µM (not active)"},
      {"measurement": "EC50", "setting": "[16]", "result": "> 150 µM (inactive)"}
    ]}
  ]
}
